US9034863B2, “Compositions and methods for inhibiting entry of a hepatic virus” (The Board of Trustees of the University of Illinois, priority 2008, dated 2015)

Tested on: HCV-JFH-1
Experiment: Chronic HCV-JFH-1 infection of Huh7-1 cells, inhibitor combinations, RT-qPCR 24-96 h (FIG. 3-5)
Type: cell-based, Hepatitis C virus (HCV)
Description: RT-qPCR analysis of intracellular HCV RNA levels in Huh7 cultures mock-treated, treated with ezetimibe (30 μM), PI (200 nM), IFN-α (100 U/ml), or indicated combinations thereof (n=3). Data presented are representative of multiple independent experiments.
FIG. 4A, Chronically infected Huh7-1 cell cultures (n=3) treated with ezetimibe (E), naringenin (N), interferon α (I), or combinations thereof, were harvested at 24, 48, 72 or 96 hours post-treatment, intracellular HCV levels were quantified by RT-qPCR, and are presented as HCV copies/μg RNA. FIG. 4B, Chronically infected Huh7-1 cell cultures (n=3) treated with ezetimibe (E), ferristatin (T), interferon α (I), or combinations thereof, were harvested at 24, 48, 72 or 96 hours post-treatment, intracellular HCV levels were quantified by RT-qPCR, and are presented as HCV copies/μg RNA.
Shown are the results of RT-qPCR analysis of intracellular HCV RNA levels in Huh7 cultures mock-treated, treated with ezetimibe (30 μM), polymerase inhibitor, RG7128 (1 μM), or a combination thereof (n=3).
For experiments analyzing the activity of ezetimibe in combination with a protease inhibitor, Huh7-1 cells were infected with HCV-JFH-1 and allowed to reach steady state levels of infection. The HCV-infected cells were seeded in a 96-well plate and treated with the following: medium alone, 30 μM ezetimibe, 200 nM ITMN5537, 100 μ/ml IFN-α, and combinations of the above drugs at the specified concentrations. Medium and drugs were replaced every 24 hours. Triplicate wells were harvested at 24, 48, 72 or 96 hours post-treatment, in 200 μl/well of 1×ABI lysis buffer and stored at −80° C. until RNA extraction.
Therefore, the therapeutic potential of an IFN-free antiviral cocktail was also investigated, using ezetimibe in combination with other direct acting inhibitors of HCV amplification, specifically an inhibitor of the HCV NS3/4A protease (ITMN 5537; Intermune, Brisbane, Calif.). Huh7-1 cells were infected with HCV-JFH-1 and allowed to reach steady state levels of infection. Cells were monotreated with protease inhibitor (PI) or ezetimibe or IFN alone or treated with combinations of PI+ezetimibe or PI+IFN or IFN+ezetimibe or a combination of all three inhibitors. Samples were harvested at 24, 48, 72 or 96 hours post-treatment, the intracellular RNA was extracted and RT-qPCR performed to quantify HCV copies.
Thus, parallel cultures of chronically infected Huh7-1 cells were established and subsequently treated with ezetimibe, naringenin or IFN-α, either alone or in combination. Treatments were replenished every 24 hours. Triplicate cultures of each treatment condition were harvested at 24, 48, 72 or 96 hours post-treatment and intracellular HCV levels were quantified by RT-qPCR (FIG. 4A). […] Thus, no evidence of synergy was observed when IFN-α was combined with an egress inhibitor that only blocks cell-free spread.
As an alternative method of determining the therapeutic importance of inhibiting HCV cell-to-cell spread, an inhibitor to TfR1 was used. TfR1 has also been identified as another host cell factor that is involved in cell-free entry of HCV into cells, but is not required for cell-to-cell-mediated HCV entry. Thus, unlike ezetimibe which inhibits both cell-free and cell-to-cell HCV spread, the TfR1 inhibitor, ferristatin, only blocks cell-free virus spread. Again, chronically infected Huh7-1 cell cultures were established and treated with ezetimibe (30 μM), ferristatin (50 μM), or IFN-α (100 U/ml), either alone or in combination and treatments were replenished every 24 hours. Intracellular HCV copies were quantified from triplicate cultures by RT-qPCR at 24, 48, 72 or 96 hours post-treatment (FIG. 4B).
Huh7-1 cells were infected with HCV-JFH-1 and allowed to reach steady state levels of infection. Cells were monotreated with HCV polymerase inhibitor RG7128 (1 μM) or ezetimibe (30 μM) alone or treated with a combination of RG7128 and ezetimibe. […]

## O=C1C[C@@H](c2ccc(O)cc2)Oc2cc(O)cc(O)c21 [naringenin]
Naringenin alone
  increase in intracellular HCV copies (FIG. 4A): about 50%

## O=C1[C@H](CC[C@H](O)c2ccc(F)cc2)[C@@H](c2ccc(O)cc2)N1c1ccc(F)cc1 [ezetimibe, 1-(4-fluorophenyl)-(3R)-[3-(4-fluorophenyl)-(3S)-hydroxypropyl]-(45)-(4-hydroxyphenyl)-2-azetidinone]
RG7128 1 μM, ezetimibe 30 μM, normalized to Mock
  reduction of HCV levels (FIG. 5): did not reduce HCV levels
Ezetimibe 30 μM, PI 200 nM, IFN-α 100 U/ml
  reduction of HCV levels (FIG. 3): did not reduce HCV levels
Ezetimibe 30 μM, ferristatin 50 μM, IFN-α 100 U/ml
  decrease in intracellular HCV load (FIG. 4B): neither ezetimibe nor ferristatin alone reduced intracellular HCV load
ezetimibe, naringenin, IFN-α alone or in combination
  reduction of HCV copies (FIG. 4A): did not reduce HCV levels
